Laboratory results taken from patent US20200085789A1, “USE OF A PROTEASOME INHIBITOR FOR THE TREATMENT OF CENTRAL NERVOUS SYSTEM (CNS) CANCERS” (Celgene International II Sàrl, priority 2017, published 2020).

Assay: Adverse events and dose-limiting toxicity (NCI-CTCAE v 4.03), MRZ ± BEV in recurrent grade IV malignant glioma patients
Format: in vivo, human
Excerpt: An adverse event (AE) is any noxious, unintended, or untoward medical occurrence that may appear or worsen in a subject during the course of a study. […] Any worsening (i.e., any clinically significant adverse change in the frequency or intensity of a pre-existing condition) should be considered an AE.
The severity/intensity of AEs will be graded based upon the subject's symptoms according to the current active minor version of the Common Terminology Criteria for Adverse Events ( ).

[1] = MRZ 0.7 mg/m^2 + BEV, Cohort 2 (N = 3)
[2] = MRZ 0.8 mg/m^2 + BEV, Cohorts 3 & 4 (N = 27)
[3] = MRZ 0.8 mg/m^2, + BEV N = 27, Monotherapy N = 30
[4] = MRZ 0.8 mg/m^2 Monotherapy (N = 30)

C[C@@]12OC(=O)[C@]1([C@@H](O)[C@@H]1C=CCCC1)NC(=O)[C@@H]2CCCl [MRZ, marizomib]
Grade ≥3 Ataxia related to the labelled drug, patients [1]: 0
Grade ≥3 Confusional State related to the labelled drug, patients [1]: 0
Grade ≥3 Delusion related to the labelled drug, patients [1]: 0
Grade ≥3 Dyspnea related to the labelled drug, patients [1]: 0
Grade ≥3 Embolism related to the labelled drug, patients [1]: 0
Grade ≥3 Fall related to the labelled drug, patients [1]: 0
Grade ≥3 Fatigue related to the labelled drug, patients [1]: 0
Grade ≥3 Hallucination related to the labelled drug, patients [1]: 0
Grade ≥3 Headache related to the labelled drug, patients [1]: 0
Grade ≥3 Hypertension related to the labelled drug, patients [1]: 0
Grade ≥3 Hyponatremia related to the labelled drug, patients [1]: 0
Grade ≥3 Insomnia related to the labelled drug, patients [1]: 0
Grade ≥3 Intracranial Hemorrhage related to the labelled drug, patients [1]: 0
Grade ≥3 Optic Nerve Disorder related to the labelled drug, patients [1]: 0
Grade ≥3 Proteinuria related to the labelled drug, patients [1]: 0
Grade ≥3 Ataxia related to the labelled drug, patients [2]: 1
Grade ≥3 Confusional State related to the labelled drug, patients [2]: 0
Grade ≥3 Delusion related to the labelled drug, patients [2]: 1
Grade ≥3 Dyspnea related to the labelled drug, patients [2]: 1
Grade ≥3 Embolism related to the labelled drug, patients [2]: 0
Grade ≥3 Fall related to the labelled drug, patients [2]: 1
Grade ≥3 Fatigue related to the labelled drug, patients [2]: 1
Grade ≥3 Hallucination related to the labelled drug, patients [2]: 1
Grade ≥3 Headache related to the labelled drug, patients [2]: 3
Grade ≥3 Hypertension related to the labelled drug, patients [2]: 0
Grade ≥3 Hyponatremia related to the labelled drug, patients [2]: 1
Grade ≥3 Insomnia related to the labelled drug, patients [2]: 1
Grade ≥3 Intracranial Hemorrhage related to the labelled drug, patients [2]: 0
Grade ≥3 Optic Nerve Disorder related to the labelled drug, patients [2]: 0
Grade ≥3 Proteinuria related to the labelled drug, patients [2]: 0
Anaemia [3]: (20.0%)
Anaemia, patients [3]: 6
Ataxia [3]: (20.0%)
Ataxia, patients [3]: 6
Confusional state [3]: (23.3%)
Confusional state, patients [3]: 7
Constipation [3]: (30.0%)
Constipation, patients [3]: 9
Diarrhoea [3]: (23.3%)
Diarrhoea, patients [3]: 7
Dizziness [3]: (16.7%)
Dizziness, patients [3]: 5
Dysarthria [3]: (16.7%)
Dysarthria, patients [3]: 5
Dysphonia [3]: (3.3%)
Dysphonia, patients [3]: 1
Epistaxis [3]: (6.7%)
Epistaxis, patients [3]: 2
Fall [3]: (13.3%)
Fall, patients [3]: 4
Fatigue [3]: (63.3%)
Fatigue, patients [3]: 19
Hallucination [3]: (40.0%)
Hallucination, patients [3]: 12
Headache [3]: (40.0%)
Headache, patients [3]: 12
Hyperglycaemia [3]: (27.6%)
Hyperglycaemia, patients [3]: 8
Hypertension [3]: (13.3%)
Hypertension, patients [3]: 4
Hypokalemia [3]: (27.6%)
Hypokalemia, patients [3]: 8
Infusion site pain [3]: (10.0%)
Infusion site pain, patients [3]: 3
Insomnia [3]: (46.7%)
Insomnia, patients [3]: 14
Nausea [3]: (36.7%)
Nausea, patients [3]: 11
Platelet count decreased [3]: (23.3%)
Platelet count decreased, patients [3]: 7
Vomiting [3]: (30.0%)
Vomiting, patients [3]: 9
Anaemia MRZ Related [4]: (16.7%
Anaemia MRZ Related, patients [4]: 5
Ataxia MRZ Related [4]: (16.7%)
Ataxia MRZ Related, patients [4]: 5
Confusional state MRZ Related [4]: (20.0%)
Confusional state MRZ Related, patients [4]: 6
Constipation MRZ Related [4]: (20.0%)
Constipation MRZ Related, patients [4]: 6
Diarrhoea MRZ Related [4]: (23.3) %
Diarrhoea MRZ Related, patients [4]: 7
Dizziness MRZ Related [4]: (10.0%)
Dizziness MRZ Related, patients [4]: 3
Dysphonia MRZ Related, patients [4]: 0
Epistaxis MRZ Related [4]: (3.3%)
Epistaxis MRZ Related, patients [4]: 1
Fall MRZ Related [4]: (3.3%)
Fall MRZ Related, patients [4]: 1
Fatigue MRZ Related [4]: (60.0%)
Fatigue MRZ Related, patients [4]: 18
Hallucination MRZ Related [4]: (36.7%)
Hallucination MRZ Related, patients [4]: 11
Headache MRZ Related [4]: (36.7%)
Headache MRZ Related, patients [4]: 11
Hypertension MRZ Related [4]: 93.3%)
Hypertension MRZ Related, patients [4]: 1
Infusion site pain MRZ Related [4]: (6.7%)
Infusion site pain MRZ Related, patients [4]: 2
Muscular weakness MRZ Related, patients [4]: 0
Nausea MRZ Related [4]: (30.0%)
Nausea MRZ Related, patients [4]: 9
Platelet count decreased MRZ Related, patients [4]: 0
Stomatitis MRZ Related, patients [4]: 0
Upper-airway cough syndrome MRZ Related, patients [4]: 0
Vomiting MRZ Related [4]: (23.3) %
Vomiting MRZ Related, patients [4]: 7
Anemia: patients, Total (Part 1 N = 36, Part 2 N = 30): 6
Anemia: patients, worst Grade 1 (Part 1 N = 36, Part 2 N = 30): 5
Anemia: patients, worst Grade 2 (Part 1 N = 36, Part 2 N = 30): 1
Ataxia: patients, Total (Part 1 N = 36, Part 2 N = 30): 8
Ataxia: patients, worst Grade 1 (Part 1 N = 36, Part 2 N = 30): 3
Ataxia: patients, worst Grade 2 (Part 1 N = 36, Part 2 N = 30): 5
Confusional State: patients, Total (Part 1 N = 36, Part 2 N = 30): 7
Confusional State: patients, worst Grade 1 (Part 1 N = 36, Part 2 N = 30): 3
Confusional State: patients, worst Grade 2 (Part 1 N = 36, Part 2 N = 30): 4
Constipation: patients, Total (Part 1 N = 36, Part 2 N = 30): 10
Constipation: patients, worst Grade 1 (Part 1 N = 36, Part 2 N = 30): 10
Diarrhea: patients, Total (Part 1 N = 36, Part 2 N = 30): 7
Diarrhea: patients, worst Grade 1 (Part 1 N = 36, Part 2 N = 30): 6
Diarrhea: patients, worst Grade 3 (Part 1 N = 36, Part 2 N = 30): 1
Dizziness: patients, Total (Part 1 N = 36, Part 2 N = 30): 5
Dizziness: patients, worst Grade 1 (Part 1 N = 36, Part 2 N = 30): 4
Dizziness: patients, worst Grade 2 (Part 1 N = 36, Part 2 N = 30): 1
Dysphonia: patients, Total (Part 1 N = 36, Part 2 N = 30): 1
Dysphonia: patients, worst Grade 1 (Part 1 N = 36, Part 2 N = 30): 1
Epistaxis: patients, Total (Part 1 N = 36, Part 2 N = 30): 2
Epistaxis: patients, worst Grade 1 (Part 1 N = 36, Part 2 N = 30): 2
Fall: patients, Total (Part 1 N = 36, Part 2 N = 30): 4
Fall: patients, worst Grade 1 (Part 1 N = 36, Part 2 N = 30): 3
